Reference: US8877766B2, “Neuroprotective multifunctional antioxidants and their monofunctional analogs” (priority 2013, dated 2014)

Tests used:
[1] = test system: SH-SY5Y neuroblastoma cells; assay: Superoxide assay, MitoSOX Red, xanthine oxidase generated superoxide; assay type: cell-based, human; details: xanthine oxidase 25 mU/mL
Protocol: The ability of the HK series of multifunctional and monofunctional antioxidant compounds to specifically reduce superoxide radicals in live cells was assessed in both SH-SY5Y neuroblastoma cells and ARPE-19 retinal pigmented epithelial cells. The production of superoxide by mitochondria was visualized with fluorescence microscopy using the MitoSOX™ Red reagent (Invitrogen Life Sciences, Grand Island, N.Y.), which permeates live cells, where it selectively targets mitochondria. It is rapidly oxidized by superoxide, but not by other reactive oxygen species (ROS) and reactive nitrogen species (RNS). The oxidized product is highly fluorescent upon binding to nucleic acid. […] The cell media was then removed from each well, and the wells were washed with PBS. Compounds (HK series and JHX series and antioxidant standards (Hydroquinone (HQ), Trolox (T), Vitamin E (VE), Vitamin C (VC)) dissolved in DMSO (10 μL) were then added to each well, along with fresh media (140 μL) without serum albumin (FBS). Superoxide dismutase (SOD, 500 μg/mL, 10 μL) was used as an additional control, and cells in all groups (controls, drug treated, and SOD treated groups) were exposed to the same amounts of DMSO. After addition, the cells were incubated at 37° C. under a 5% CO2 atmosphere for 1 hr. Xanthine oxidase (XO), was then added (25 mU/mL) to generate approximately 100 μM superoxide, and culture continued for an additional hour. The media was then again removed, and the cells were washed with PBS. Finally, the cells were stained with 100 μL of the MitoSOX Red reagent (5 μM), and 2 hr after further incubation, the fluorescence of each well was measured using fluorescent microplate reader at Ex/Em=510/580 nm.

[2] = test system: ARPE-19 retinal pigmented epithelial cells; assay: LIVE/DEAD Viability/Cytotoxicity Assay, hydroxyl radical (Fenton reagent) induced cell death; assay type: cell-based, human; details: ARPE-19, 2 hours exposure to Fenton reagent
Protocol: (§1) The ability of the HK series of multifunctional antioxidant compounds to specifically protect against hydroxyl radical-induced cell death was assessed in both SH-SY5Y neuroblastoma cells and ARPE-19 retinal pigmented epithelial cells using the LIVE/DEAD® Viability/Cytotoxicity Assay (Invitrogen Life Sciences, Grand Island, N.Y.). The cells were seeded into 96-well plates and grown in standard media (1:1 EMEM-F12 media containing 10% FBS for the human SH-SY5Y neuroblastoma cells, or DMEM containing 4% FBS for the human ARPE-19 retinal pigmented epithelial cells), at 37° C. under a 5% CO2 atmosphere until 80% confluence was achieved (ca. 24 hr). The media was then removed, and the cells were washed with PBS. Compounds (HK series and JHX series or antioxidant standards (Hydroquinone (HQ), Trolox (T), Vitamin E (VE), Vitamin C (VC)) dissolved in DMSO (10 μL) were again added to the cells, along with the appropriate media without FPS. Following a 1 hr incubation at 37° C. under a 5% CO2 atmosphere, Fenton reagents (Fe^2+ and hydrogen peroxide dissolved in appropriate media without FBS to give a final concentration of 100 μM) were added to each well, and incubation continued. After 2 hr of incubation with Fenton reagent, the media was removed and the cells were washed with PBS. The cells were stained with 100 μL of the LIVE/DEAD reagent containing calcein AM (AM, 8 μM for NB) and ethidium homodimer-1 (EthD-1, 16 μM for NB) for 1 hr at 37° C. The fluorescence of each well was measured using a fluorescent microplate reader at Ex/Em=494/517 nm (Fsam for LIVE Cells) and Ex/Em=528/617 nm (Fsam for DEAD Cells). The fluorescence of control samples was also measured as follows: Fmax for LIVE Cells (The fluorescence at Ex/Em=494/517 nm in live cells samples labeled with AM only); Fmin for LIVE Cells (The fluorescence at Ex/Em=494/517 nm in live cells samples labeled with EthD-1 only); Fmax for DEAD Cells (The fluorescence at Ex/Em=528/617 nm in dead cells samples labeled with EthD-1 only); Fmin for DEAD Cells (The fluorescence at Ex/Em=528/617 nm in dead cells samples labeled with AM only); Blank 494/517 (The fluorescence at Ex/Em=494/517 nm without dye and cells); Blank 528/617 (The fluorescence at Ex/Em=528/617 nm without dye and cells). For the dead cells control, the cells were incubated with 70% of ethanol for 30 min at 37° C. The percentage of live cells was calculated from the fluorescence readings using the equation
(§2) [formula] The percentage of dead cells was calculated from the fluorescence readings using the equation: […]

[3] = test system: SH-SY5Y neuroblastoma cells; assay: as above; assay type: cell-based, human; details: 2 hours exposure to Fenton reagent
Protocol: as §1, §2

[4] = test system: SH-SY5Y neuroblastoma cells; assay: Cell viability study, MTS Cell Titer 96 Aqueous One Solution assay; details: 1 mM compound in 0.16% DMSO
Protocol: (§5) The in vitro cell viability studies were conducted as previously described using SH-SY5Y neuroblastoma cells (ATCC) and cultured according to ATCC procedures in 1:1 Eagles minimum essential medium with Earle's balanced salt solution and Ham's F12 (EMEM-F12) media containing (10% fetal bovine serum (FBS)) at 37° C. under a 5% CO2 atmosphere. Cell viability studies were conducted over a 24 hour period in 96-well plates using the Cell Titer 96® Aqueous One Solution Cell Proliferation Assay (MTS, Promega, Madison, Wis.) with 1 mM of each compound or clioquinol (PBT1) dissolved in 0.16% DMSO. […] This is a colorimetric method for determining the number of viable cells in proliferation or cytotoxicity assays where the One Solution contains MTS (3-(4,5-dimethylthiazol-2-yl)-5-(3-carboxymethoxyphenyl)-2-(4-sulfophenyl)-2H-tetrazolium), in the presence of phenazine methosulfate (PMS). The MTS compound is bioreduced by cells into a colored formazan product and, as measured by the amount of 490 nm absorbance, is directly proportional to the number of living cells in culture. […] The protective effect of these compounds against H2O2 and hydroxyl radical generated by the Fenton reaction were examined.

[5] = test system: radiation cataract; details: Long-Evans rats, 15 Gy whole head gamma irradiation; cited from earlier work
[6] = test system: light-induced retinal damage; details: rats; cited from earlier work
[7] = test system: diabetic cataract; details: diabetic rats; cited from earlier work
[8] = test system: ARPE-19 RPE cells; assay: Mitochondrial viability/toxicity, rhodamine 123 staining with or without MnCl2; assay type: cell-based, human; details: ARPE-19, 1 mM drug, 1 mM MnCl2
[9] = test system: SH-SY5Y neuroblastoma cells; assay: Zinquin analysis of cellular labile zinc after exposure to Aβ1-42/Zn complex; assay type: cell-based, human; details: 10 μM drug
Protocol: (§3) The ability of MFAOs to release zinc from amyloid beta/zinc complex was investigated using […] from American Peptide Company, Inc. (Vista, Calif.). The Aβ1-42/Zn complex was prepared as follow. ZnSO4 solution (200 μM) and Aβ1-42 (200 μM) were mixed together and incubated at 37° C. After 48 hr incubation, the mixture was centrifuged at 14000×g, 3 min to pellet the aggregated Aβ1-42. The aggregated Aβ1-42 was then resuspended in water or 200 μM of drugs. The complex was diluted with Hank's Balanced Saline Solution (HBSS) to give a final 10 μM concentration for each component. This complex was then used in the following studies employing human SH-SY5Y neuroblastoma and ARPE-19 pigmented epithelial cells. The studies were repeated 2-4 times.
(§4) Human SH-SY5Y neuroblastoma cells were seeded into 8-well microscope plates (BD Falcon, 800μ-slides), and the cells were incubated in EMEM-F12 media containing 10% FBS at 37° C. under a 5% CO2 atmosphere. Once the cells were approximately 80% confluent in each well, the media was removed, and the cells were washed with phosphate buffered saline (PBS). […] The zinquin fluorescence was then measured in the fixed cells by confocal fluorescence microscopy using a DAPI (4′,6-diamidino-2-phenylindole) DAPI filter set to assess the cellular compartmentalization of zinc. […]

[10] = test system: SH-SY5Y neuroblastoma cells; assay: Mitochondrial viability/toxicity, rhodamine 123 staining with or without MnCl2; assay type: cell-based, human; details: 1 mM drug, 1 mM MnCl2
Protocol: The laser dye rhodamine 123 is shown to be a specific probe for the localization of mitochondria in living cells. Because of its selectivity for mitochondria, this stain can be used to probe alterations in mitochondria induced by drugs. Therefore, studies were conducted to determine whether MFAOs can adversely alter mitochondrial function through their ability chelate transition metals.
Human SH-SY5Y neuroblastoma cells were seeded into 8-well microscope plates (BD Falcon, 800μ-slides), and the cells were incubated in EMEM-F12 media containing 10% FBS at 37° C. under a 5% CO2 atmosphere. Once the cells were approximately 80% confluent in each well, the media was removed and the cells were washed with PBS. The cells were then pre-incubated for 1 hour at 37° C. under a 5% CO2 atmosphere with 200 μL of HBSS medium without FBS containing drug JHX-1, -4, -5, -8, HK-2, -4, -9, -11, or Clioquinol dissolved in DMSO, so that final drug concentrations of 1 mM in 4% DMSO were achieved. Then MnCl2 was added to the appropriate cells groups to give a final concentration of 1 mM, and the groups were cultured for an additional 2 hours. After the […] exposure to manganese, the media was removed and the cells were washed with PBS. The cells were then stained with 100 μL of the fluorescent dye rhodamine 123 (Rh123) (20 μM) and Hoechst 33342 (8 μM) per well at 37° C., 5% CO2 for 30 min. […]

[11] = test system: ARPE-19 retinal pigmented epithelial cells; assay: Zinquin analysis of cellular labile zinc after exposure to Aβ1-42/Zn complex; assay type: cell-based, human; details: ARPE-19, 10 μM drug
Protocol: as §3, §4

[12] = test system: SH-SY5Y neuroblastoma cells; assay: Protective effect against H2O2 and Fenton-generated hydroxyl radical, MTS cell viability; assay type: cell-based, human; details: versus DMSO control
Protocol: as §5

Structure (SMILES)	reduction of superoxide radical [1]	decrease in 24 hr cell viability compared to DMSO treated cells [4]	further results
COc1nc(N2CCCCC2)nc(OC)c1O [HK-16, 5-hydroxy-4,6-dimethoxy-2-(piperidine-1-yl)pyrimidine]	demonstrated protection		protection against hydroxyl radical (live/dead cells) [2]: dose-dependent protection
c1cnc(N2CCCC2)nc1 [HK-9, 2-(pyrrolidine-1-yl)pyrimidine]	no effect		protection against hydroxyl radicals (live/dead cells) [3]: no effect
O=C1CCCC(=O)N1c1ncc(O)cn1 [HK-6, 1-(5-hydroxy-2-pyrimidyl)piperidine-2,6-dione]		approximately 20%	
O=C1CCCC(=O)N1c1ncccn1 [HK-5, 1-(2-pyrimidyl)piperidine-2,6-dione]	did not		
COc1cc(OC)nc(N2C(=O)CCCC2=O)n1 [HK-7, 1-(4,6-dimethoxy-2-pyrimidyl)piperidine-2,6-dione]	did not		
O=C1CCC(=O)N1c1ncccn1 [HK-1, 1-(2-pyrimidyl)pyrrolidine-2,5-dione]	did not		
COc1cc(OC)nc(N2CCCC2)n1 [HK-11, 4,6-dimethoxy-2-(pyrrolidine-1-yl)pyrimidine]	no effect		protection against hydroxyl radicals (live/dead cells) [3]: no effect
Oc1cnc(N2CCCCC2)nc1 [HK-14, 5-hydroxy-2-(piperidine-1-yl)pyrimidine]	demonstrated protection		protection against hydroxyl radical (live/dead cells) [2]: dose-dependent protection
O=C1CCC(=O)N1c1ncc(O)cn1 [HK-2, 1-(5-hydroxy-2-pyrimidyl)pyrrolidine-2,5-dione]		approximately 20%	
CN(C)S(=O)(=O)N1CC(=O)N(c2ncc(O)cn2)C(=O)C1 [JHX-4]			cataract formation after irradiation [5]: significantly delayed cataract formation; protection against light-induced retinal damage [6]: protects rats against light-induced retinal damage; progression of cataracts [7]: delayed the progression of cataracts
COc1cc(OC)nc(N2C(=O)CCC2=O)n1 [HK-3, 1-(4,6-dimethoxy-2-pyrimidyl)pyrrolidine-2,5-dione]	did not		
Oc1cnc(N2CCCC2)nc1 [HK-10, 5-hydroxy-2-(pyrrolidine-1-yl)pyrimidine]	demonstrated protection		protection against hydroxyl radical (live/dead cells) [2]: dose-dependent protection
COc1nc(N2C(=O)CCCC2=O)nc(OC)c1O [HK-8, 1-(4,6-dimethoxy-5-hydroxy-2-pyrimidyl)piperidine-2,6-dione]		30%	
COc1nc(N2CCCC2)nc(OC)c1O [HK-12, 5-hydroxy-4,6-dimethoxy-2-(pyrrolidine-1-yl)pyrimidine]	demonstrated protection		protection against hydroxyl radical (live/dead cells) [2]: dose-dependent protection
Oc1c(I)cc(Cl)c2cccnc12 [clioquinol]		50%	loss of rhodamine 123 staining after MnCl2 [8]: not observed; labile zinc (zinquin staining) in presence of aggregated Aβ1-42/Zn complex [9]: maintain labile zinc levels; loss of rhodamine 123 staining after MnCl2 [10]: not observed; labile zinc (zinquin staining) in presence of aggregated Aβ1-42/Zn complex [11]: maintain labile zinc levels; cell viability in the Fenton reaction [12]: lower than DMSO control
Cc1c(C)c2c(c(C)c1O)CCC(C)(C(=O)O)O2 (centres unmarked) [Trolox, reference compound]		approximately 20%	
